Holding throughout (assay type): cell-based
Assay [1] relates to Mouse prostate cancer cell line RM1. In words: Inhibitory activity on cancer cells, CellTiter-Glo viability, RM1. The conditions noted are these: 72 hours treatment. On the procedure:
(§1) HUVEC (purchased from Allcells Biological Technology (Shanghai) Co., Ltd.); UM-UC-3 (ATCC); LNCaP (ATCC); RM-1 (purchased from Nanjing Cobioer Biosciences Co., Ltd.) (1) On the first day, the cells were seeded in a 96-well plate, and the previous medium was poured off. 5 mL of DPBS was added to wash the cells, and then removed by a pipette and discarded. Then, 1 mL of trypsin (0.25%) was added, and the plate was placed in a cell culture incubator at 37 °C, 5% CO2 for digestion, and taken out after about 2 to 5 minutes. New corresponding medium was added, and pipetted to resuspend the cells evenly, and the cells were then counted with an automated cell counter. Regarding HUVEC, the medium used was endothelial cell complete medium; regarding UM-UC-3, the medium used was 89 v % EMEM+10 v % fetal bovine serum+1 v % penicillin-streptomycin double anti-body; regarding LNcaP, the medium used was 89 v % RPM11640+10 v % fetal bovine serum+1 v % penicillin-streptomycin double anti-body; and regarding RM1, the medium used was 89 v % DMEM+10 v % fetal bovine serum+1 v % penicillin-streptomycin double anti-body. (2) HUVEC cells were seeded in columns 1 to 11 of a 96-well plate (Corning, Cat. No. 3610) at a density of 2000 cells per well in 100 μL of medium, and the medium free of cell was added to the wells of column 12. The other three types of cells were also seeded, wherein UM-UC-3 and RM-1 cells were seeded at a density of 3000 cells per well, and LNCap cells were seeded at a density of 5000 cells per well. Then, the plate was placed in an incubator at 37° C., 5% CO2 for 24 hours. (3) On the second day, the compounds of the present invention and the reference drug nitroxoline (obtained according to the preparation method disclosed in the prior art) were diluted in gradient (2.5 folds, started at 100 μmol) to obtain 8 dose points (there were a total of 8 columns of wells; the first column of wells had the highest concentration, the concentration decreased in turn, and the last column of wells had the lowest concentration). 10 μL of the compound diluted in gradient was added to the 100 μL of cells in column 1 to column 10 with an 8-channel pipette. 10 μL of the corresponding medium containing 0.33 v % DMSO was added to column 11 and column 12. The plate was incubated in an incubator at 37° C., 5% CO2 for 72 hours (note: column 11 was used as MAX well with cells and no compounds; and column 12 was used as MIN well with no cells and no compounds). (4) After treating with the compounds of the present invention for 72 hours, the cell viability detection reagents in the above CellTiter-Glo® assay kit were added to the 96-well plate at 50 μL per well according to the instructions. The plate was shaken on a shaker in the dark for 5 to 10 minutes, and then the cell activity was determined by a multifunctional microplate reader. Finally, the growth inhibition of the compounds of the present invention on the cells was plotted by XLFIT 5.3 software, and the IC50 values of the compounds of the present invention were calculated.

Assay [2] relates to Prostate cancer cell line LNcaP. In words: Inhibitory activity on cancer cells, CellTiter-Glo viability, LNcaP. The conditions noted are these: Homo sapiens, 72 hours treatment. The procedure: as §1
In assay [3] the test system is Bladder cancer cell line UM-UC-3. In words: Inhibitory activity on cancer cells, CellTiter-Glo viability, UM-UC-3. To be noted: Homo sapiens, UMUC3, 72 hours treatment. On the procedure:
as §1

Assay [4] concerns Escherichia coli (carbapenem-resistant clinical isolate; ATCC25922). In words: MIC by micro broth dilution (CLSI), Escherichia coli. The conditions noted are these: for MIC50 / MIC90: ATCC25922, Clinical strain; for MIC50 / MIC90 / MIC: Escherichia coli; for MIC50: read-out: MIC50; for MIC90: read-out: MIC90; for MIC: Standard strain ATCC25922, read-out: MIC. In a few lines:
(§2)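 MIC was read after 20 hours at 35±2° C in air, following CLSI 2019 M100 criteria. Test wells held cation-adjusted Mueller-Hinton broth, compound from 128 to 0.06 mg/L (DMSO-dissolved) and 10^5 CFU/mL final inoculum.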

Assay [5] deals with Endothelial cell line HUVEC. In words: Inhibitory activity on cells, CellTiter-Glo viability, HUVEC. The conditions noted are these: Homo sapiens, 72 hours treatment. On the procedure:
as §1

Assay [6] concerns Acinetobacter baumannii (carbapenem-resistant clinical isolates; ATCC19606). In words: MIC by micro broth dilution (CLSI), Acinetobacter baumannii. The conditions noted are these: for MIC50 / MIC90: ATCC19606, Clinical strain; for MIC50 / MIC90 / MIC: Acinetobacter baumannii; for MIC50: read-out: MIC50; for MIC90: read-out: MIC90; for MIC: Standard strain ATCC19606, read-out: MIC. In a few lines:
as §2

The test system of assay [7] is Staphylococcus aureus (methicillin-resistant and sensitive clinical isolates; ATCC29213). In words: MIC by micro broth dilution (CLSI), Staphylococcus aureus. To be noted: for MIC50 / MIC90: Clinical strain; for MIC50: read-out: MIC50; for MIC90: read-out: MIC90; for MIC: Standard strain ATCC29213, read-out: MIC. In a few lines: as §2

≈ marks a conversion by molar mass, not a printed value.

With `CN(C)C(=O)N1CCN(c2ccnc3c(O)c([N+](=O)[O-])ccc23)CC1` [Example 25, 4-(8-Hydroxy-7-nitroquinolin-4-yl)-N,N-dimethylpiperazine-1-carboxamide], the IC50 in assay [1] was 47.2 µM; in assay [2] it was 32.4 µM; in assay [3], 44.5 µM; in assay [5] it was 47.6 µM. The MIC50 in assay [4] turned out to be 128 µg/mL (≈ 371 µM); in assay [6], 128 µg/mL (≈ 371 µM); in assay [7], 16 µg/mL (≈ 46.3 µM). Besides, the MIC90 was more than 128 µg/mL in assay [4], more than 128 µg/mL in assay [6] and 16 µg/mL (≈ 46.3 µM) in assay [7]. For the same compound, the minimum inhibitory concentration (MIC) in assay [4] was 32 µg/mL (≈ 92.7 µM); in assay [6] it was more than 128 µg/mL; in assay [7] it was more than 128 µg/mL.
As to `COC(=O)N1CCN(c2ccnc3c(O)c([N+](=O)[O-])ccc23)CC1` [Example 26], the concentration for half-maximal inhibition (IC50) came to 12.5 µM in assay [1], 11.9 µM in assay [2], 11.4 µM in assay [3] and 15.1 µM in assay [5]. Besides, the MIC50 was more than 128 µg/mL in assay [4], 64 µg/mL (≈ 193 µM) in assay [6] and 16 µg/mL (≈ 48.1 µM) in assay [7]. In addition, the MIC90 in assay [4] is more than 128 µg/mL; in assay [6] it was more than 128 µg/mL; in assay [7], 64 µg/mL (≈ 193 µM). In addition, the minimal inhibitory concentration (MIC) is 128 µg/mL (≈ 385 µM) in assay [4], more than 128 µg/mL in assay [6] and 128 µg/mL (≈ 385 µM) in assay [7].
Turning to `O=[N+]([O-])c1ccc2c(F)ccnc2c1O` [Example 27, 4-Fluoro-7-nitroquinolin-8-ol], the IC50 in assay [1] was 13.2 µM; in assay [2] it was 11.9 µM; in assay [3] it was 4.11 µM; in assay [5], 3.17 µM. In addition, the MIC50 in assay [4] was 128 µg/mL (≈ 615 µM); in assay [6], more than 128 µg/mL; in assay [7], 64 µg/mL (≈ 307 µM). In addition, the figures for the MIC90 in assay [4], in assay [6] and in assay [7] were more than 128 µg/mL, more than 128 µg/mL and 64 µg/mL (≈ 307 µM), respectively. Besides, the values for the minimal inhibitory concentration (MIC) in assay [4], in assay [6] and in assay [7] were 64 µg/mL (≈ 307 µM), more than 128 µg/mL and 64 µg/mL (≈ 307 µM), respectively.
Take `COC(=O)[C@@H]1CCCN1c1ccnc2c(O)c([N+](=O)[O-])ccc12` [Example 28, Methyl (8-hydroxy-7-nitroquinolin-4-yl)-L-prolinate]: the half-maximal inhibitory concentration (IC50) in assay [1] worked out at 17 µM; in assay [2] it was 33 µM; in assay [3], 42.3 µM; in assay [5] it was 17.3 µM. The results for the MIC50 in assay [4], in assay [6] and in assay [7] were more than 128 µg/mL, 64 µg/mL (≈ 202 µM) and 32 µg/mL (≈ 101 µM), respectively. Besides, the MIC90 in assay [4] is more than 128 µg/mL; in assay [6], more than 128 µg/mL; in assay [7], 32 µg/mL (≈ 101 µM). The MIC in assay [4], in assay [6] and in assay [7] was more than 128 µg/mL in each case.
For `O=[N+]([O-])c1cc(Cl)c2c(Cl)ccnc2c1O` [Example 29, 4,5-dichloro-7-nitroquinolin-8-ol], the IC50 in assay [1] is 6.5 µM; in assay [2], 7.03 µM; in assay [3], 9.11 µM; in assay [5] it was 6.22 µM. Moreover, the MIC50 in assay [4] worked out at 4 µg/mL (≈ 15.4 µM); in assay [6], 2 µg/mL (≈ 7.72 µM); in assay [7] it was 0.5 µg/mL (≈ 1.93 µM). Besides, the figures for the MIC90 in assay [4], in assay [6] and in assay [7] were 8 µg/mL (≈ 30.9 µM), 4 µg/mL (≈ 15.4 µM) and 1 µg/mL (≈ 3.86 µM), respectively. Besides, the MIC in assay [4] worked out at 4 µg/mL (≈ 15.4 µM); in assay [6], 2 µg/mL (≈ 7.72 µM); in assay [7], 1 µg/mL (≈ 3.86 µM). The “inhibitory effect against Escherichia coli compared with the reference drug nitroxoline” value in assay [4] (MIC comparison) is given as “comparable to that of the reference drug nitroxoline”. Further, the “inhibitory effect against Acinetobacter baumannii compared with the reference drug nitroxoline” value in assay [6] (MIC comparison) was “comparable to that of the reference drug nitroxoline”.
Take `O=[N+]([O-])c1ccc2c(O)ccnc2c1O` [Example 30, 7-Nitroquinoline-4,8-diol]: the IC50 in assay [1], in assay [2], in assay [3] and in assay [5] was more than 100 µM each time. Besides, the MIC50 in assay [4], in assay [6] and in assay [7] was more than 128 µg/mL throughout. In addition, the MIC90 in assay [4], in assay [6] and in assay [7] was more than 128 µg/mL each time. Also, the minimal inhibitory concentration (MIC) in assay [4], in assay [6] and in assay [7] was more than 128 µg/mL throughout.
`COC(=O)N1CCN(c2ccnc3c(O)c([N+](=O)[O-])cc(Cl)c23)CC1` [Example 31, Methyl 4-(5-chloro-8-hydroxy-7-nitroquinolin-4-yl)-piperazine-1-carboxylate]: the IC50 in assay [1] was found to be 0.46 µM; in assay [2], 0.96 µM; in assay [3], 0.94 µM; in assay [5], 1.63 µM. Also, the MIC50 in assay [4], in assay [6] and in assay [7] was more than 128 µg/mL in each case. Also, the MIC90 in assay [4], in assay [6] and in assay [7] was more than 128 µg/mL throughout. The MIC in assay [4], in assay [6] and in assay [7] was more than 128 µg/mL each time.
Regarding `O=[N+]([O-])c1ccc2c(C3CCCCC3)ccnc2c1O` [Example 32, 4-Cyclohexyl-7-nitroquinolin-8-ol], the half-maximal inhibitory concentration (IC50) was 0.6 µM in assay [1], 0.23 µM in assay [2], 1.09 µM in assay [3] and 0.89 µM in assay [5]. Also, the MIC50 in assay [4] stood at 64 µg/mL (≈ 235 µM); in assay [6] it was 32 µg/mL (≈ 118 µM); in assay [7] it was 1 µg/mL (≈ 3.67 µM). For the same compound, the MIC90 in assay [4] turned out to be 64 µg/mL (≈ 235 µM); in assay [6], 32 µg/mL (≈ 118 µM); in assay [7], 1 µg/mL (≈ 3.67 µM). In addition, the minimum inhibitory concentration (MIC) in assay [4] stood at 64 µg/mL (≈ 235 µM); in assay [6] it was 32 µg/mL (≈ 118 µM); in assay [7], 1 µg/mL (≈ 3.67 µM).
Regarding `CC(=O)N1CCN(c2ccnc3c(O)c([N+](=O)[O-])cc(Cl)c23)CC1` [Example 33, 4-(5-Chloro-8-hydroxy-7-nitroquinolin-4-yl)-1-acetylpiperazine], the half-maximal inhibitory concentration (IC50) turned out to be 18 µM in assay [1], 15 µM in assay [2], 50.5 µM in assay [3] and 16.9 µM in assay [5]. The MIC50 is more than 128 µg/mL in assay [4], more than 128 µg/mL in assay [6] and 32 µg/mL (≈ 91.2 µM) in assay [7]. The MIC90 in assay [4] is more than 128 µg/mL; in assay [6], more than 128 µg/mL; in assay [7] it was 32 µg/mL (≈ 91.2 µM). The MIC was more than 128 µg/mL in assay [4], more than 128 µg/mL in assay [6] and 32 µg/mL (≈ 91.2 µM) in assay [7].
In the case of `COc1ccnc2c(O)c([N+](=O)[O-])cc(Cl)c12` [Example 34, 5-Chloro-4-methoxy-7-nitroquinolin-8-ol], the half-inhibitory concentration (IC50) in assay [1] stood at 12.7 µM; in assay [2], 6.78 µM; in assay [3] it was 14 µM; in assay [5], 6.44 µM. Further, the values for the MIC50 in assay [4], in assay [6] and in assay [7] were 8 µg/mL (≈ 31.4 µM), 32 µg/mL (≈ 126 µM) and 4 µg/mL (≈ 15.7 µM), respectively. Also, the MIC90 in assay [4] amounted to 32 µg/mL (≈ 126 µM); in assay [6], 32 µg/mL (≈ 126 µM); in assay [7], 8 µg/mL (≈ 31.4 µM). Besides, the MIC came out at 8 µg/mL (≈ 31.4 µM) in assay [4], 32 µg/mL (≈ 126 µM) in assay [6] and 4 µg/mL (≈ 15.7 µM) in assay [7].

The values above are taken from patent US20240246916A1, “7-NITRO-8-HYDROXYQUINOLINE DERIVATIVES, PREPARATION METHOD THEREFORE AND MEDICAL USE THEREOF” (Jiangsu Yahong Meditech Co., Ltd., priority 2021, published 2024).
